Source: patent US12600714B2, “Substituted pyrazinecarboxamide compounds for treating diseases related to EGFR mutation” (WIGEN BIOMEDICINE TECHNOLOGY (SHANGHAI) CO., LTD., priority 2020, dated 2026)

What was measured:
[1] = target: Ba/F3 (EGFR^del19/T790M/C797S) triple-mutant cells (Homo sapiens, UniProt P00533, T790M/C797S, cells depend on it, form not given); assay: Antiproliferative activity against Ba/F3 (EGFR del19/T790M/C797S) triple-mutant cells, Cell Titer Glow; assay type: cell-based; conditions: three days after addition of compounds; read-out: Antiproliferative activity BaF3(EGFR^del19/T790M/C797S) IC50
Chain of Ba/F3 (EGFR^del19/T790M/C797S) triple-mutant cells (P00533 with tags, fused parts or gaps DEL746-750/T790M/C797S, form open): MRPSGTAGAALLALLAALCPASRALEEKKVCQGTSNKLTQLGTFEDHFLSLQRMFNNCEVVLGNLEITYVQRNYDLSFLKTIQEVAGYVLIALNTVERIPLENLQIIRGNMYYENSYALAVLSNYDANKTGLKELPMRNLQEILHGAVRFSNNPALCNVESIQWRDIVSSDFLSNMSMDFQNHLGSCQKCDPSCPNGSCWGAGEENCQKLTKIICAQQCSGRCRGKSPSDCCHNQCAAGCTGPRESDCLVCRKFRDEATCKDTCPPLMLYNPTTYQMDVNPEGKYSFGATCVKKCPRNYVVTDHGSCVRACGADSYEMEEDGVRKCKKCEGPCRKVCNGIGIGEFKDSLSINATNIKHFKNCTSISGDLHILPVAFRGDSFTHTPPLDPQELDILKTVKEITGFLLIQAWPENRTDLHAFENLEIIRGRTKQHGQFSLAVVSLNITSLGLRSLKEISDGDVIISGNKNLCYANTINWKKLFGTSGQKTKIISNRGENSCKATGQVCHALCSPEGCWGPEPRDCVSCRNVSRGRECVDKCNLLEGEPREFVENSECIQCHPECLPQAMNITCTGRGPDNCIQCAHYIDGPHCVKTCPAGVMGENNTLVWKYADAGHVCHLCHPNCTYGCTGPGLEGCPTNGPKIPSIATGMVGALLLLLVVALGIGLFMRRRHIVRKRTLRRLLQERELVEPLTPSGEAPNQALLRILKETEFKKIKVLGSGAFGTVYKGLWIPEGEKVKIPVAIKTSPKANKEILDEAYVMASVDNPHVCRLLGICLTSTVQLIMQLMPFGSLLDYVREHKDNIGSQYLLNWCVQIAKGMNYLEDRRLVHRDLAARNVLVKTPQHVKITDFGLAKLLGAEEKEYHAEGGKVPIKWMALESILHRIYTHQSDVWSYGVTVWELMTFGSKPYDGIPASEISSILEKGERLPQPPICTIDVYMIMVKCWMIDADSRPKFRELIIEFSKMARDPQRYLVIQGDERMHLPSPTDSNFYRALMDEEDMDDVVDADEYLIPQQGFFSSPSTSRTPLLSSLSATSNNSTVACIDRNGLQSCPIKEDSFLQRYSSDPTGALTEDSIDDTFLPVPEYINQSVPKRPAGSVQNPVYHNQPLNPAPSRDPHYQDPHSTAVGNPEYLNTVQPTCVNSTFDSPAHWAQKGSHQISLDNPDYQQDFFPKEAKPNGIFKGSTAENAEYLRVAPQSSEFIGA
Description: (§1) Antiproliferative Activity of the Compounds Disclosed Herein Against Ba/F3 (EGFR^del19/T790M/C797S) Triple-Mutant Cells and A431 (EGFR WT) Cells
(§2) • 3000 Ba/F3 cells carrying EGFR (del19/T790M/C797S) or 2000 A431 cells were seeded in a 384-well plate. After one day, serially diluted compounds were added (up to 500 nM for Ba/F3 cells and up to 10 μM for A431 cells). Three days after the addition of the compounds, Cell Titer Glow was added to evaluate cell growth and the percentage cell growth inhibition by the compounds and the IC50 values were calculated.

EGFR (WT) = EGFR (WT) (Homo sapiens, UniProt P00533); assay: HTRF inhibitory activity assay against EGFR (WT) enzyme; assay type: biochemical
Chain of EGFR (WT) (P00533 25-1210): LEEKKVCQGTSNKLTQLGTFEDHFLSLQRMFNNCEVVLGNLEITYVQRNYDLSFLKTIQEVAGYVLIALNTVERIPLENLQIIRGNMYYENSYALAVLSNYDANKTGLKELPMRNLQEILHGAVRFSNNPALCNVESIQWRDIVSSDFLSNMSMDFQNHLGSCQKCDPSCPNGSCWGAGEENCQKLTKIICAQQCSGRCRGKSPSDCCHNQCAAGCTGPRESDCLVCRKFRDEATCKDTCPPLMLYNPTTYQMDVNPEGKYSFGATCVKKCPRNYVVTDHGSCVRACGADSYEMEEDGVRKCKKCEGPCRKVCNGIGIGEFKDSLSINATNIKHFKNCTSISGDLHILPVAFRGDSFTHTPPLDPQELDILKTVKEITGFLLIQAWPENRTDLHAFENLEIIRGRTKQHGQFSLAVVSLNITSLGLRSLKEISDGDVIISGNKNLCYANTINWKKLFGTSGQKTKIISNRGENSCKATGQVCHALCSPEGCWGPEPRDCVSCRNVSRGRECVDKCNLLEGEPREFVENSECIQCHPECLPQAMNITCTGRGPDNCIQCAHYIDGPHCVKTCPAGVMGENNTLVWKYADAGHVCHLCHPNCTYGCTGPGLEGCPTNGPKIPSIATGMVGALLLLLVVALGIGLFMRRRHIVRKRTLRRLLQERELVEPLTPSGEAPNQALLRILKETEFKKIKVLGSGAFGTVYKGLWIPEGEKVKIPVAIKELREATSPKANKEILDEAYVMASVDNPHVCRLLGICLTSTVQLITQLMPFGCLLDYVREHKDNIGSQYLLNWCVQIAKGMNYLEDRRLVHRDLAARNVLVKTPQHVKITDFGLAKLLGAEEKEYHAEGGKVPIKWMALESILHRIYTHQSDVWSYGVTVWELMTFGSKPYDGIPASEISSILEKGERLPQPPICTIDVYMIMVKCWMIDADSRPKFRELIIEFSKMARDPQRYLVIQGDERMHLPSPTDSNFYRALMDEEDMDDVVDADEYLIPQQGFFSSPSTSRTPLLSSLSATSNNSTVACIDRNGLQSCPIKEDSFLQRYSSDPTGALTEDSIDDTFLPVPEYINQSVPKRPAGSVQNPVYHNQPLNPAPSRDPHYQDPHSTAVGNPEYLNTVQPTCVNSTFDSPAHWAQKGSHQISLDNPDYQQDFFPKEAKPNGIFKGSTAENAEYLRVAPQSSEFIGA
Description: (§3) Inhibitory Activity Assay of the Compounds Disclosed Herein Against EGFR (del19/T790M/C797S), EGFR (L858R/T790M/C797S) or EGFR (WT) Enzymes
(§4) The inhibitory effects of the compounds against EGFR (del19/T790M/C797S), EGFR (L858R/T790M/C797S) or EGFR (WT) enzyme activity was determined by using HTRF. The procedures are as follows:
(§5) The WT or mutant EGFR proteins were incubated with a serially diluted compounds at 28° C. for 10 min followed by addition of biotin-labeled general tyrosine kinase (TK) substrate and ATP. The mixture was incubated at room temperature for 40 min for reaction. After the termination of the reaction, an Eu3+-Cryptate-labeled antibody against TK and streptavidin-XL665 were added and the mixture was incubated at room temperature for 60 min. The luminescences at 615 nm and 665 nm were detected and the ratio of 665/615 was calculated to quantify the level of TK substrate phosphorylation. Inhibition % and IC50 of the compounds were calculated relative to the control group.

EGFR (del19/T790M/C797S) = assay: HTRF inhibitory activity assay against EGFR (del19/T790M/C797S) enzyme; assay type: biochemical
How it was run: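 Wild-type or mutant EGFR preincubated with serially diluted compound 10 min at 28 °C, then reacted 40 min at room temperature with biotinylated TK substrate and ATP. Phosphorylation detected by HTRF (Eu-cryptate anti-TK antibody, streptavidin-XL665, 60 min), 665/615 nm ratio; % inhibition and IC50 vs control.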

EGFR (L858R/T790M/C797S) = EGFR (L858R/T790M/C797S) (Homo sapiens, UniProt P00533, C797S/L858R/T790M); assay: HTRF inhibitory activity assay against EGFR (L858R/T790M/C797S) enzyme; assay type: biochemical; conditions: read-out: EGFR (L858R/T790M/C797S) inhibition (%) (0.3 nM compound)
Chain of EGFR (L858R/T790M/C797S) (P00533 25-1210 T790M/C797S/L858R): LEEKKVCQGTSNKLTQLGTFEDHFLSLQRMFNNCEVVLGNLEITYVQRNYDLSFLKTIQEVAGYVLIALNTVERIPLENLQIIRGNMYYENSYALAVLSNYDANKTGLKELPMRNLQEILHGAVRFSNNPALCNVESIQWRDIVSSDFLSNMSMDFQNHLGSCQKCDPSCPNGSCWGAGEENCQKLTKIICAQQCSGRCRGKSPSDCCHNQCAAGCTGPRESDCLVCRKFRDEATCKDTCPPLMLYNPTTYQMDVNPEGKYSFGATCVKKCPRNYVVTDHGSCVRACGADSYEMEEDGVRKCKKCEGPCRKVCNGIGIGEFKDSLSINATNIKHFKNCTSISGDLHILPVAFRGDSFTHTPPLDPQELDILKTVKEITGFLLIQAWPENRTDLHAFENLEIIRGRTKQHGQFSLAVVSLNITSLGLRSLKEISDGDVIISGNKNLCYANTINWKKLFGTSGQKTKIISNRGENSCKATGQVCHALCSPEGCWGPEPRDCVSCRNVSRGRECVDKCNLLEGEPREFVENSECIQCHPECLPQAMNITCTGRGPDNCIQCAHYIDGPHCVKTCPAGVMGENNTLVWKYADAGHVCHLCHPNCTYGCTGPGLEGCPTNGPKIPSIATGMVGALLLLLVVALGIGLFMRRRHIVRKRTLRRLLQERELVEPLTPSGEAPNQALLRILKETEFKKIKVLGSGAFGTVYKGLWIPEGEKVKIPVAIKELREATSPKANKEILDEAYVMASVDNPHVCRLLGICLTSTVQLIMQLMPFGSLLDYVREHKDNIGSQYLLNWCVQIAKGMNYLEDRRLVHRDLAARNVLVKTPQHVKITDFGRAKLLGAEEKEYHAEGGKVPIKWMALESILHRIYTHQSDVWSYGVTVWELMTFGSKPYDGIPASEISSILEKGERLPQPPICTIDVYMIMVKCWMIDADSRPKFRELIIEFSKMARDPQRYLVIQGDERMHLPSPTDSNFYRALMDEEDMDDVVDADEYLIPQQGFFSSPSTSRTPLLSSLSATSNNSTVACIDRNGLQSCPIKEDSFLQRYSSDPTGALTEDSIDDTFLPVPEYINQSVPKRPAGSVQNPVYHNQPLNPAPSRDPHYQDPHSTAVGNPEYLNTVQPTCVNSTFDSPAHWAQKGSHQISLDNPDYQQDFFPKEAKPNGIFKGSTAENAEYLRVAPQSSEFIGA
Description: as §3, §4, §5

A431 (EGFR WT) cells = assay: Antiproliferative activity against A431 (EGFR WT) cells, Cell Titer Glow; assay type: cell-based; conditions: Homo sapiens, A-431, 72 h; three days after addition of compounds; read-out: Antiproliferative activity A431 wild-type (WT) IC50
Description: as §1, §2

Row | Compound | GI50 [1] [nM] | IC50 (EGFR (WT)) [nM] | EGFR (del19/T790M/C797S) inhibition (%) (0.3 nM compound) (EGFR (del19/T790M/C797S)) | inhibition at 0.0003 µM (EGFR (L858R/T790M/C797S)) [%] | IC50 (A431 (EGFR WT) cells) [nM]
1 | CN1CCC(Oc2nc(Nc3ccc(N4CCC(N5CCN(C)CC5)CC4)cc3)c(C(N)=O)nc2-c2ccccc2)CC1 [compound 4] | 295 | > 100 | + (+ indicates an inhibition less than or equal to 20%) | ≤ 20 | 1700
2 | CN1CCN(C2CCN(c3ccc(Nc4nc(N(C)C)c(-c5ccccc5)nc4C(N)=O)cc3)CC2)CC1 [compound 10] | – | > 300 | ++ (++ indicates an inhibition from 20% to 50%) | – | –
3 | CN1CCN(C2CCN(c3ccc(Nc4nc(NC5CCOCC5)c(-c5ccccn5)nc4C(N)=O)cc3)CC2)CC1 [compound 38] | 48 | – | – | 20 to 50 | 1800
4 | CN1CCN(C2CCN(c3ccc(Nc4nc(NC5CCOCC5)c(-c5ccccc5C#N)nc4C(N)=O)cc3)CC2)CC1 [compound 52] | – | > 300 | +++ (+++ indicates an inhibition greater than 50%.) | – | –
5 | Cc1cc(Nc2nc(NC3CCOCC3)c(-c3ccncc3)nc2C(N)=O)ccc1N1CCC(N2CCN(C)CC2)CC1 [compound 114] | 27 | – | ++ (++ indicates an inhibition from 20% to 50%) | > 50 | 970
6 | CN1CCN(C2CCN(c3ccc(Nc4nc(O[C@H]5CCN(C)C5)c(-c5ccccc5)nc4C(N)=O)cc3)CC2)CC1 [compound 2] | – | > 100 | + (+ indicates an inhibition less than or equal to 20%) | – | –
7 | CN1CCN(C2CCN(c3ccc(Nc4nc(Nc5ccccc5)c(-c5ccccc5)nc4C(N)=O)cc3)CC2)CC1 [compound 5] | – | > 100 | + (+ indicates an inhibition less than or equal to 20%) | ≤ 20 | –
8 | CN1CCN(C2CCN(c3ccc(Nc4nc(NC5CCOCC5)c(-c5ccncc5)nc4C(N)=O)cc3)CC2)CC1 [compound 39, 3-((4-(4-(4-methylpiperazin-1-yl)piperidin-1-yl)phenyl)amino)-6-(pyridin-4-yl)-5-((tetrahydro-2H-pyran-4-yl)amino)pyrazine-2-carboxamide] | 29 | > 300 | +++ (+++ indicates an inhibition greater than 50%.) | > 50 | 340
9 | CN1CCN(C2CCN(c3ccc(Nc4nc(NC5CCOCC5)c(-c5cn[nH]c5)nc4C(N)=O)cc3)CC2)CC1 [compound 57] | 79 | > 300 | ++ (++ indicates an inhibition from 20% to 50%) | 20 to 50 | 320
10 | CN1CCN(C2CCN(c3ccc(Nc4nc(NC5CC6(COC6)C5)c(-c5cccc6[nH]ccc56)nc4C(N)=O)cc3)CC2)CC1 [compound 527] | 4 | 1.7 | +++ (+++ indicates an inhibition greater than 50%.) | > 50 | 100
11 | CC(C)Nc1nc(Nc2ccc(N3CCC(N4CCN(C)CC4)CC3)cc2)c(C(N)=O)nc1-c1ccccc1 [compound 11] | 107 | > 300 | ++ (++ indicates an inhibition from 20% to 50%) | – | 540
12 | CN1CCN(C2CCN(c3ccc(Nc4nc(NC5CS(=O)(=O)C5)c(-c5ccccc5)nc4C(N)=O)cc3)CC2)CC1 [compound 126] | 248 | – | + (+ indicates an inhibition less than or equal to 20%) | ≤ 20 | 2600
13 | CN1CCC(c2ccc(Nc3nc(NC4CCOCC4)c(-c4ccncc4)nc3C(N)=O)cc2)CC1 [compound 121] | 70 | – | +++ (+++ indicates an inhibition greater than 50%.) | > 50 | 590
14 | CN1CCN(C2CCN(c3ccc(Nc4nc(NC5COC5)c(-c5cccc6[nH]ccc56)nc4C(N)=O)cc3)CC2)CC1 [compound 594] | 13 | – | +++ (+++ indicates an inhibition greater than 50%.) | > 50 | 70
15 | CN1CCN(C2CCN(c3ccc(Nc4nc(N[C@H]5CC[C@H](O)CC5)c(-c5ccccc5)nc4C(N)=O)cc3)CC2)CC1 [compound 23] | 36 | – | ++ (++ indicates an inhibition from 20% to 50%) | ≤ 20 | 950
16 | COC1CCC(Nc2nc(Nc3ccc(N4CCC(N5CCN(C)CC5)CC4)cc3)c(C(N)=O)nc2-c2ccccc2)C1 (centres unmarked) [compound 35] | 54 | – | ++ (++ indicates an inhibition from 20% to 50%) | ≤ 20 | 480
17 | CO[C@H]1C[C@H](Nc2nc(Nc3ccc(N4CCC(N5CCN(C)CC5)CC4)cc3)c(C(N)=O)nc2-c2ccccc2)C1 [compound 125] | 99 | – | ++ (++ indicates an inhibition from 20% to 50%) | 20 to 50 | 650
18 | CNc1nc(Nc2ccc(N3CCC(N4CCN(C)CC4)CC3)cc2)c(C(N)=O)nc1-c1ccccc1 [compound 13] | 197 | > 300 | + (+ indicates an inhibition less than or equal to 20%) | – | 1300
19 | CCc1nc(C(N)=O)c(Nc2ccc(N3CCC(N4CCN(C)CC4)CC3)c(OC)c2)nc1NC1CCOCC1 [Gilteritinib, gilteritinib, reference compound] | > 500 | – | – | ≤ 20 | –
20 | CN1CCN(C2CCN(c3ccc(Nc4nc(NCC(C)(C)O)c(-c5ccccc5)nc4C(N)=O)cc3)CC2)CC1 [compound 21] | 48 | > 300 | ++ (++ indicates an inhibition from 20% to 50%) | – | 520
21 | CC(C)Oc1nc(Nc2ccc(N3CCC(N4CCN(C)CC4)CC3)cc2)c(C(N)=O)nc1-c1ccccc1 [compound 14] | 113 | > 300 | + (+ indicates an inhibition less than or equal to 20%) | – | 950
22 | COc1ccncc1-c1nc(C(N)=O)c(Nc2ccc(N3CCC(N4CCN(C)CC4)CC3)cc2)nc1NC1CCOCC1 [compound 83] | 233 | – | ++ (++ indicates an inhibition from 20% to 50%) | 20 to 50 | 750
23 | CN(C)C1CCN(c2ccc(Nc3nc(NC4CCOCC4)c(-c4ccccc4)nc3C(N)=O)cc2)CC1 [compound 59] | 72 | > 300 | + (+ indicates an inhibition less than or equal to 20%) | – | 1400
